Test results as given in patent US12527778B2, “Enantiomers of a series of antiviral compounds” (Innovative Molecules GmbH, priority 2017, dated 2026).

Assay: aqueous solubility (PBS, pH 7.4), shake flask
Assay type: physicochemical
Method: The aqueous solubility (PBS, pH 7.4) was determined at Eurofins, Cerep, Panlabs according to C. A. Lipinski et al. Adv. Drug Del. Rev. 1997:46, 3.
Measurement of the aqueous solubility was performed according to Lipinski, C. A. et al. Adv. Drug Del. Rev. 1997:46, 3. The relevant information from the literature is described below.
In addition, chromatographic purity (%) was defined as the peak area of the principal peak relative to the total integrated peak area in the HPLC chromatogram of the calibration standard.

Cc1nc(N(C)C(=O)Cc2ccc(-c3cc(F)ccc3F)cc2)sc1S(C)(=N)=O (racemic) [Example 7, 2-(2′,5′-Difluoro-[1,1′-biphenyl]-4-yl)-N-methyl-N-(4-methyl-5-(S-methylsulfonimidoyl)thiazol-2-yl)acetamide]
solubility in comparison to Example 87 (WO2001/047904): significantly increased solubility (at least one order of magnitude)
